# Source: PMC9403987 (Frontiers in Oncology, 2022)
# Legend:
# Experiment in all cases: Cell proliferation assay
# Format in all cases: cell-based, Homo sapiens
# [1] = tested on: IMR32; details: IMR32, brain, neuroblastoma, 72 hours
# Description: (§1) To quantify cell proliferation, either the nuclei of live cells were counted following staining with 4’,6-diamidino-2-phenylindole (DAPI; Sigma-Aldrich, Burlington, MA, USA), or metabolically active cells were detected using a CellTiter-Glo assay (Promega Corporation, Madison, WI, USA). Cells from a range of human and mammalian tumor cell lines (American Type Culture Collection, Manassas, VA, USA) were seeded at 4000 cells per well in 100 μL of culture medium in a 96-well plate and incubated overnight at 37°C with 5% CO2. […] In the DAPI staining method, cells were washed using 1× phosphate-buffered saline (PBS; Gibco Thermo Fisher Scientific, Waltham, MA, USA), fixed with 4% formaldehyde, permeabilized with 0.2% Triton X-100 (Sigma-Aldrich), washed again, and stained with 1 μg/mL DAPI to visualize cell nuclei. Cells were washed with 1× PBS three times, and 100 μL 1× PBS was added to each well. Plates were scanned using an IN Cell Analyzer 2200 (GE Healthcare Life Sciences, Chicago, IL, USA) and the number of cells per well was recorded. In the CellTiter-Glo assay, 60 μL of CellTiter-Glo luminescent solution was added to each well after incubation with the test compounds, and the assay plate was scanned using a Tecan Infinite M1000 PRO microplate reader (Tecan Group AG, Männedorf, Switzerland) to record luminescent signals.
# [2] = tested on: HLE; details: liver, hepatocellular carcinoma, 72 hours
# Description: as §1
# [3] = tested on: HCCLM3; details: HCCLM3, liver, hepatocellular carcinoma, 72 hours
# Description: as §1
# [4] = tested on: HCCC9810; details: HCCC9810, liver, hepatocellular carcinoma, 72 hours
# Description: as §1
# [5] = tested on: KNS-81; details: KNS-81, brain, glioblastoma, 72 hours
# Description: as §1
# [6] = tested on: SNU-398; details: SNU-398, liver, hepatocellular carcinoma, 72 hours
# Description: as §1
# [7] = tested on: SW1088; details: SW1088, brain, grade II astrocytoma, 72 hours
# Description: as §1
# [8] = tested on: NCI-H1703; details: NCI-H1703, lung, NSCLC, 72 hours
# Description: as §1
# [9] = tested on: MCF-10A; details: breast, non-malignant mammary epithelial, 72 hours
# Description: as §1
# [10] = tested on: HT29; details: HT29, colon carcinoma, 72 hours
# Description: as §1
# [11] = tested on: SNU-423; details: SNU-423, liver, hepatocellular carcinoma, 72 hours
# Description: as §1
# [12] = tested on: NCI-H23; details: NCI-H23, lung, NSCLC, 72 hours
# Description: as §1
# [13] = tested on: NCI-H358; details: NCI-H358, lung, NSCLC, 72 hours
# Description: as §1
# [14] = tested on: NCI-H1838; details: NCI-H1838, lung, NSCLC, 72 hours
# Description: as §1
# [15] = tested on: M059K; details: brain, glioblastoma, 72 hours
# Description: as §1
# [16] = tested on: Huh-1; details: Huh-1, liver, hepatocellular carcinoma, 72 hours
# Description: as §1
# [17] = tested on: Hep G2; details: Hep G2, liver, hepatocellular carcinoma, 72 hours
# Description: as §1
# [18] = tested on: Caco-2; details: Caco-2, colorectal carcinoma, 72 hours
# Description: as §1
# [19] = tested on: NCI-H292; details: NCI-H292, lung, mucoepidermoid pulmonary carcinoma, 72 hours
# Description: as §1
# [20] = tested on: SK-HEP-1; details: SK-HEP-1, liver, hepatocellular carcinoma, 72 hours
# Description: as §1
# [21] = tested on: U251; details: U251, brain, glioblastoma, 72 hours
# Description: as §1
# [22] = tested on: LoVo; details: colorectal carcinoma, 72 hours
# Description: as §1
# [23] = tested on: HTC116; details: HTC116, colorectal carcinoma, 72 hours
# Description: as §1
# [24] = tested on: NCI-H1299; details: NCI-H1299, lung, NSCLC, 72 hours
# Description: as §1
# [25] = tested on: DLD-2; details: DLD-2, colorectal carcinoma, 72 hours
# Description: as §1
# [26] = tested on: U87-MG; details: brain, glioblastoma, 72 hours
# Description: as §1
# [27] = tested on: DBTRG-05MG; details: brain, glioblastoma, 72 hours
# Description: as §1
# [28] = tested on: SW620; details: SW620, colon carcinoma, 72 hours
# Description: as §1
# [29] = tested on: NCI-H441; details: NCI-H441, lung carcinoma, 72 hours
# Description: as §1
# [30] = tested on: A549; details: A549, lung carcinoma, 72 hours
# Description: as §1
# [31] = tested on: SNU-387; details: SNU-387, liver, hepatocellular carcinoma, 72 hours
# Description: as §1
# [32] = tested on: HL7702; details: HL7702, liver, 72 hours
# Description: as §1
# [33] = tested on: MDA-MB-468; details: MDA-MB-468, breast carcinoma, 72 hours
# Description: as §1
# [34] = tested on: KP-N-YN; details: neural, neuroblastoma, 72 hours
# Description: as §1
smiles,measurement,setting,value
"CCN1CCN(Cc2ccc(Nc3ncc(F)c(-c4cc(F)c5nc(C)n(C(C)C)c5c4)n3)nc2)CC1 [Abemaciclib, abemaciclib, reference compound]",IC50,"[1]; Homo sapiens, IMR-32",25 nM
same,IC50,[2]; Homo sapiens,389 nM
same,IC50,[3]; Homo sapiens,3100 nM
same,IC50,[4]; Homo sapiens,71 nM
same,IC50,[5]; Homo sapiens,106 nM
same,IC50,[6]; Homo sapiens,173 nM
same,IC50,[7]; Homo sapiens,471 nM
same,IC50,[8]; Homo sapiens,93 nM
same,IC50,[9]; Homo sapiens,1770 nM
same,IC50,"[10]; Homo sapiens, HT-29",1840 nM
same,IC50,[11]; Homo sapiens,48 nM
same,IC50,[12]; Homo sapiens,904 nM
same,IC50,[13]; Homo sapiens,44 nM
same,IC50,[14]; Homo sapiens,90 nM
same,IC50,[15]; Homo sapiens,871 nM
same,IC50,[16]; Homo sapiens,365 nM
same,IC50,"[17]; Homo sapiens, HepG2",3200 nM
same,IC50,[18]; Homo sapiens,395 nM
same,IC50,[19]; Homo sapiens,149 nM
same,IC50,"[20]; Homo sapiens, SK-HEP1",6 nM
same,IC50,"[21]; Homo sapiens, U-251",151 nM
same,IC50,[22]; Homo sapiens,25 nM
same,IC50,[23]; Homo sapiens,76 nM
same,IC50,[24]; Homo sapiens,463 nM
same,IC50,"[25]; Homo sapiens, DLD2",237 nM
same,IC50,"[26]; Homo sapiens, U-87 MG",106 nM
same,IC50,[27]; Homo sapiens,13 nM
same,IC50,"[28]; Homo sapiens, SW-620",10 nM
same,IC50,[29]; Homo sapiens,40 nM
same,IC50,[30]; Homo sapiens,104 nM
same,IC50,[31]; Homo sapiens,193 nM
same,IC50,"[32]; Homo sapiens, L02",1720 nM
same,IC50,[33]; Homo sapiens,1250 nM
same,IC50,[34]; Homo sapiens,827 nM
CC1=Nc2c(F)cc(-c3nc(Nc4ccc(C5CCN(C)CC5)cn4)ncc3F)cc2C12CCCC2 [GLR2007],IC50,[1],21 nM
same,IC50,[2],143 nM
same,IC50,[3],1840 nM
same,IC50,[4],30 nM
same,IC50,[5],33 nM
same,IC50,[6],51 nM
same,IC50,[7],143 nM
same,IC50,[8],3 nM
same,IC50,[9],2730 nM
same,IC50,[10],601 nM
same,IC50,[11],19 nM
same,IC50,[12],243 nM
same,IC50,[13],17 nM
same,IC50,[14],48 nM
same,IC50,[15],3250 nM
same,IC50,[16],261 nM
same,IC50,[17],2550 nM
same,IC50,[18],453 nM
same,IC50,[19],73 nM
same,IC50,[20],36 nM
same,IC50,[21],53 nM
same,IC50,[22],13 nM
same,IC50,[23],38 nM
same,IC50,[24],564 nM
same,IC50,[25],33 nM
same,IC50,[26],16 nM
same,IC50,[27],6 nM
same,IC50,[28],10 nM
same,IC50,[29],7 nM
same,IC50,[30],66 nM
same,IC50,[31],68 nM
same,IC50,[32],1940 nM
same,IC50,[33],1940 nM
same,IC50,[34],657 nM
